Reference: patent publication US20250345318A1, “COMPOUND AND USE THEREOF IN PREVENTING OR TREATING RADIATION DAMAGE” (SIMCERE PHARMACEUTICAL CO., LTD., priority 2022, published 2025)

Key:
SPCA-1 cells = test: CCK-8 cell viability, JAC4 with X-ray, SPCA-1 (Example 22); type: cell-based, human; settings: 10 μM JAC4 24 h + 4 Gy X-ray 24 h
Description: SPCA-1 and BEAS-2B cells were cultured in a 90%/DMEM+10% FBS+100 μg/mL ciprofloxacin culture medium. The SPCA-1 and BEAS-2B cells were pretreated for 24 h with 10 μM JAC4 and subjected to 4 Gy X-ray treatment for 24 h and then CCK-8 detection, so as to explore the influence of JAC4 in combination with X-ray on the viability of SPCA-1 and BEAS-2B cells. The specific procedures are as follows:
1. SPCA-1 and BEAS-2B cells in the exponential growth phase were plated in a 96-well plate at 5,000 cells/well in triplicate for each group.
2. After 24 h of culture, when the cells fully adhered to the container wall and returned to normal morphology, the cells were treated with X-ray radiation of 0, 4, 8, 12, 16, or 20 Gy or JAC4 at 0, 1, 5, 10, 20, or 50 μM.
3. After 24 h of treatment, CCK-8 reagent was added at 10 μL/well, and the cells were incubated in a cell incubator for 1 h. The absorbance (OD) at 450 nm was measured.
4. Cell viability equation: cell viability (%)=[…]×100%/(ODcontrol−ODblank).

IEC-6 cells [1] = test: Colocalization of cytochrome C and mitochondria in irradiated IEC-6 cells (Example 13); type: cell-based; settings: 1 μM JAC4 24 h pretreatment + 12 Gy, 24 h after
Description: The effect was explored in a small intestinal epithelial IEC-6 cell in-vitro radiation model.
Formulation of JAC4 (1 μM or 10 μM): 5 mg of JAC4 was added to 1527 μL of DMSO to prepare a 10 mM stock solution, which was then serially diluted into 2 mM and 200 μM stock solutions.
10 μL of 200 μM stock solution was added into 90 μL of complete culture medium. The 100-μL mixture was uniformly mixed before 900 μL of complete culture medium was added, and uniformly mixed again before 1 mL of complete culture medium was added. The mixture was again uniformly mixed and then added into a six-well plate to give 1 μM JAC4.
Control wells: 10 μL of DMSO was added into 90 μL of complete culture medium. The 100-μL mixture was uniformly mixed before 900 μL of complete culture medium was added, and uniformly mixed again before 1 mL of complete culture medium was added. The mixture was again uniformly mixed and then added into a six-well plate.
IEC-6 cells were pretreated for 24 h with 1 μM JAC4 or DMSO and subjected to radiation (12 Gy) treatment. After 24 h, colocalized cell immunofluorescent images of mitochondrial cytochrome C staining and mitochondria staining were acquired and subjected to fluorescent colocalization analysis using the Image J software to give colocalization correlation coefficients (***p<0.001) of cytochrome C and mitochondria in IEC-6 cells after different treatments.

JWA = JWA expression in small intestine by Western blot (Example 4); type: in vivo, mice; settings: small intestine tissue; JAC4 100 mg/kg oral, 7 days before and 4 days after TBI 6 Gy
Description: C57BL/6 male mice (24.8±1.6 g in body weight) aged 10 weeks were divided into 2 groups. After acclimating to the environment, JAC4 (100 mg/kg) or an equal volume of vehicle (polyethylene glycol:ethanol:physiological saline=47.5:7.5:50, v/v/v) was orally administered to the mice once daily for 7 consecutive days. After that, the mice were subjected to total body X-ray irradiation (6 Gy) and JAC4 or vehicle treatment was continued for 4 days, after which small intestine tissues were collected. The expression levels of JWA in the small intestine were detected by Western blot, with β-actin as the reference. Adobe photoshop CC was used to measure the grayscale value of JWA/β-actin in panel A for statistical analysis (** p<0.01).
The Western blot procedures are as follows:
1. Protein sample preparation: Proper volumes of protein sample solutions were mixed with physiological saline to give […] solutions at a volume of 16 μL, and 4 μL of 5×SDS sample buffer was added. The mixture was uniformly mixed, centrifuged at 1000×g for 10 s, and boiled at 100° C. for 5 min. The samples were cooled at room temperature and then preserved in a −20° C. freezer.
(1) Lower separating gel: The glass plates and gel cassette were assembled while ensuring that the bottom of the glass plates was sealed to prevent leakage of the gel. […]

IEC-6 cells [2] = test: Mitochondrial membrane potential by JC-1 staining in irradiated IEC-6 cells (Example 13); type: cell-based; settings: JAC4 24 h pretreatment + 12 Gy, 24 h after
Description: IEC-6 cells were pretreated for 24 h with JAC4 ([…]) or DMSO and subjected to radiation (12 Gy) treatment. After 24 h the ROS produced in the IEC-6 cells was determined with a DCFH probe, the apoptosis of IEC-6 cells was determined by Hoechst staining, the mitochondrial membrane potential in IEC-6 cells was determined by JC-1 staining, and the apoptotic IEC-6 cell ratio of cells different treatments and the red/green fluorescence ratio in IEC-6 cells after different treatments were calculated (**p<0.01 and ***p<0.001).

With `c1ccc(CSc2nnc(C3COc4ccccc4O3)o2)nc1` (stereo not shown) [JAC4] the “viability of SPCA-1 cells (CCK-8)” value (SPCA-1 cells) was “significantly inhibited”, the “fluorescent colocalization correlation coefficient of the mitochondria and cytochrome C” value (IEC-6 cells [1]) was 0.73±0.02 and the “mean grayscale value of JWA expression (JWA/β-actin)” value (JWA) was 0.72±0.13. The “red/green fluorescence ratio (JC-1, mitochondrial membrane potential)” value (IEC-6 cells [2]) was 0.49±0.05.
